Experimental data from patent publication US20240158446A1, “CYCLIC COMPOUND HAVING SELECTIVE INHIBITORY ACTION ON KRAS OVER HRAS AND NRAS” (CHUGAI SEIYAKU KABUSHIKI KAISHA, priority 2021, published 2024).
Where two headings read alike, the source gives them in different places. *1 amine or outer side, *2 acyl side, *3 side chain or, on linkers, in order; H or OH if unused. Where a SMILES comes first, the peptide text is derived from it. Bridges are numbered along the chain shown (N, C = ends). [ ]: non-standard residue; d: D form. The star is where a group is joined. hPhe(3-Cl-4-CF3) = N[C@@H](CCc1ccc(C(F)(F)F)c(Cl)c1)C(=O)O; NPrPhe(4-CF3) = CCCN[C@@H](Cc1ccc(C(F)(F)F)cc1)C(=O)O; X9 = CCCN([C@@H](Cc1ccc(F)cc1)C(=O)[*:2])[*:1]; Pro(4-spirocPr) = O=C(O)[C@@H]1CC2(CC2)CN1; NMeGly(cPent) = CN[C@H](C(=O)O)C1CCCC1; Hyp = O=C(O)[C@@H]1C[C@@H](O)CN1; NMeD = CN[C@@H](CC(=O)O)C(=O)O; NMeL = CN[C@@H](CC(C)C)C(=O)O; Morpholide = C1CN(*)CCO1; NMeA = CN[C@@H](C)C(=O)O; Ac5c = NC1(C(=O)O)CCCC1; Aze = O=C(O)[C@@H]1CCN1; NEtG = CCNCC(=O)O; Sar = CNCC(=O)O

Legend:
[1] = biological target: GDP-bound KRAS wild-type protein (Homo sapiens, UniProt P01116); assay: Binding to KRAS by surface plasmon resonance (SPR), Single Cycle Kinetics; conditions: GDP-bound KRAS wild-type protein, read-out: KRAS KD
Sequence of GDP-bound KRAS wild-type protein (P01116 whole entry): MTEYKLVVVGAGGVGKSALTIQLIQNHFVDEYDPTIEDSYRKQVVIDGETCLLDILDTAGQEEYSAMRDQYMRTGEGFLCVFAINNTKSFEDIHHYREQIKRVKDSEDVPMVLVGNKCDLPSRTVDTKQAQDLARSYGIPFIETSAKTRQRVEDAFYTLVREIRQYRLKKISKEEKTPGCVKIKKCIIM

[2] = biological target: GDP-bound HRAS wild-type protein (Homo sapiens, UniProt P01112); assay: Binding to HRAS by surface plasmon resonance (SPR), Single Cycle Kinetics; conditions: SPR, GDP-bound HRAS wild-type protein vs GDP-bound KRAS wild-type protein
Sequence of GDP-bound HRAS wild-type protein (P01112 whole entry): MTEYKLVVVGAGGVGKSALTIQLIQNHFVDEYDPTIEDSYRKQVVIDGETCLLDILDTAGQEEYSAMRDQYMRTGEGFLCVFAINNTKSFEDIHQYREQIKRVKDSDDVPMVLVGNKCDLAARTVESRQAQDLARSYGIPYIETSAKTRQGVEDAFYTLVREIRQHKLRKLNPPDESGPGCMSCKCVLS

[3] = biological target: GDP-bound NRAS wild-type protein (Homo sapiens, UniProt P01111); assay: Binding to NRAS by surface plasmon resonance (SPR), Single Cycle Kinetics; conditions: SPR, GDP-bound NRAS wild-type protein vs GDP-bound KRAS wild-type protein
Sequence of GDP-bound NRAS wild-type protein (P01111 whole entry): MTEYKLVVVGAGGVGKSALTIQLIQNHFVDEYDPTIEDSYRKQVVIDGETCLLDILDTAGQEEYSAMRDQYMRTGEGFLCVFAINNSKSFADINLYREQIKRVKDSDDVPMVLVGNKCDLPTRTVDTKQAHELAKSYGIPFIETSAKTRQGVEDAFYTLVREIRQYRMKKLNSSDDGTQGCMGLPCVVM

[4] = SPR Single Cycle Kinetics, 1:1 binding model

Kd [1, 4] [nM]	Kd ([1]; SPR, Single Cycle Kinetics) [nM]	SMILES	HRAS/KRAS (ratio of KD value for HRAS to KD value for KRAS) [2]	NRAS/KRAS (ratio of KD value for NRAS to KD value for KRAS) [3]	further results
6.2		CC[C@H](C)[C@@H]1NC(=O)[C@H](CC(C)C)N(C)C(=O)C[C@@H](C(=O)N2CCOCC2)N(C)C(=O)[C@H](C2CCCC2)N(C)C(=O)C2(CCCC2)NC(=O)[C@@H]2CCCN2C(=O)[C@H](CCc2ccc(C(F)(F)F)c(Cl)c2)NC(=O)CN(C)C(=O)[C@H](Cc2ccc(OC(F)(F)F)cc2)N2CCCCC[C@@H](C2=O)N(C)C(=O)CN(C)C1=O [PP0615]			HRAS/KRAS (ratio of KD value with respect to HRAS to KD value with respect to KRAS) [2]: B (a compound having 3 or more and less than 10 is denoted as B); NRAS/KRAS (ratio of KD value with respect to NRAS to KD value with respect to KRAS) [3]: B (a compound having 3 or more and less than 10 is denoted as B)
0.062		CC[C@H](C)[C@@H]1NC(=O)[C@H](C)N(C)C(=O)C[C@@H](C(=O)N2CCOCC2)N(C)C(=O)[C@H](C2CCCC2)N(C)C(=O)C2(CCCC2)NC(=O)[C@@H]2CCCN2C(=O)[C@H](CCc2cc(F)c(C(F)(F)F)c(F)c2)NC(=O)CN(C)C(=O)[C@H](Cc2ccc(C(F)(F)F)cc2)N2CCCC[C@@H](C2=O)N(C)C(=O)CN(C)C1=O [PP0549]			HRAS/KRAS (ratio of KD value with respect to HRAS to KD value with respect to KRAS) [2]: B (a compound having 3 or more and less than 10 is denoted as B); NRAS/KRAS (ratio of KD value with respect to NRAS to KD value with respect to KRAS) [3]: C (A compound having a KD ratio of 0.1 or more and less than 3 is denoted as C)
11		CC[C@H](C)[C@@H]1NC(=O)[C@H](CC(C)C)N(C)C(=O)C[C@@H](C(=O)N2CCOCC2)N(CC)C(=O)[C@H](C2CCCC2)N(C)C(=O)C2(CCCC2)NC(=O)[C@@H]2CCCN2C(=O)[C@H](CCc2cc(F)c(C(F)(F)F)c(F)c2)NC(=O)CN(C)C(=O)[C@H](Cc2ccc(C(F)(F)F)cc2)N2CCCCC[C@@H](C2=O)N(C)C(=O)CN(C)C1=O [PP0477]			HRAS/KRAS (ratio of KD value with respect to HRAS to KD value with respect to KRAS) [2]: A (a compound having 10 or more and less than 20 is denoted as A); NRAS/KRAS (ratio of KD value with respect to NRAS to KD value with respect to KRAS) [3]: A (a compound having 10 or more and less than 20 is denoted as A)
	0.6	CCCO[C@@H]1C[C@H]2C(=O)NC3(CCC3)C(=O)N(C)[C@@H](C3CCCC3)C(=O)N(C)[C@H](C(=O)N3CCOCC3)CC(=O)N(C)[C@@H](CC(C)C)C(=O)N[C@@H]([C@@H](C)CC)C(=O)N(C)CC(=O)N(C)[C@H]3CCCCCN(C3=O)[C@@H](Cc3ccc(C(F)(F)F)cc3)C(=O)N(C)CC(=O)N[C@@H](CCc3cc(F)c(C(F)(F)F)c(F)c3)C(=O)N2C1 [PP1161]	B (a compound having 3 or more and less than 10 is denoted as B)	B (a compound having 3 or more and less than 10 is denoted as B)	

Continued, compound first:

SMILES	Kd [1, 4] [nM]	Kd ([1]; SPR, Single Cycle Kinetics) [nM]	HRAS/KRAS (ratio of KD value for HRAS to KD value for KRAS) [2]	NRAS/KRAS (ratio of KD value for NRAS to KD value for KRAS) [3]	further results
C=CCN1CC(=O)N(C)[C@H]2C/C=C\CCN(C2=O)[C@@H](Cc2ccc(C)cc2)C(=O)N(C)CC(=O)N[C@@H](CCc2cc(F)c(C(F)(F)F)c(F)c2)C(=O)N2C[C@H](OCC)C[C@H]2C(=O)NC2(CC(C)(C)C2)C(=O)N(C)[C@@H](C2CCCC2)C(=O)N(C)[C@H](C(=O)N(C)C)CC(=O)N(C)[C@@H](CCC)C(=O)N[C@@H]([C@@H](C)CC)C1=O [PP2094]		0.29	A (a compound having 10 or more and less than 20 is denoted as A)	A (a compound having 10 or more and less than 20 is denoted as A)	
CCCN1C(=O)CN(C)C(=O)CN(CC)C(=O)[C@H]([C@@H](C)CC)NC(=O)[C@H](CC(C)C)N(C)C(=O)C[C@@H](C(=O)N2CCOCC2)N(C)C(=O)[C@H](C2CCCC2)N(C)C(=O)C2(CCCC2)NC(=O)[C@@H]2CC3(CC3)CN2C(=O)[C@H](CCc2ccc(C(F)(F)F)c(Cl)c2)NC(=O)CN(C)C(=O)[C@@H]1Cc1ccc(C(F)(F)F)cc1 [PP0295] ([NMeL]I[NEtG][Sar][NPrPhe(4-CF3)][Sar][hPhe(3-Cl-4-CF3)][Pro(4-spirocPr)][Ac5c][NMeGly(cPent)][NMeD]-Morpholide; lactam N-11)	0.52		C (A compound having a KD ratio of 0.1 or more and less than 3 is denoted as C)	B (a compound having 3 or more and less than 10 is denoted as B)	
CCCN1C(=O)[C@@H]2CCN2C(=O)[C@H](C)N(C)C(=O)[C@H]([C@@H](C)CC)NC(=O)[C@H](CC(C)C)N(C)C(=O)C[C@@H](C(=O)N2CCOCC2)NC(=O)[C@H](C2CCCC2)N(C)C(=O)C2(CCCC2)NC(=O)[C@@H]2C[C@@H](OCC)CN2C(=O)[C@H](CCc2ccc(C(F)(F)F)c(Cl)c2)NC(=O)CN(C)C(=O)[C@@H]1Cc1ccc(C(F)(F)F)cc1 [PP0347] ([NMeL]I[NMeA][Aze][NPrPhe(4-CF3)][Sar][hPhe(3-Cl-4-CF3)][Hyp](Et)[Ac5c][NMeGly(cPent)]D-Morpholide; lactam N-11)	0.36		B (a compound having 3 or more and less than 10 is denoted as B)	C (A compound having a KD ratio of 0.1 or more and less than 3 is denoted as C)	
CCCN1C(=O)[C@@H]2CCN2C(=O)[C@H](C)N(C)C(=O)[C@H]([C@@H](C)CC)NC(=O)[C@H](CC(C)C)N(C)C(=O)C[C@@H](C(=O)N2CCOCC2)N(C)C(=O)[C@H](C2CCCC2)N(C)C(=O)C2(CCCC2)NC(=O)[C@@H]2CCN2C(=O)[C@H](CCc2ccc(C(F)(F)F)c(Cl)c2)NC(=O)CN(C)C(=O)[C@@H]1Cc1ccc(C(F)(F)F)cc1 [PP0281] ([NMeL]I[NMeA][Aze][NPrPhe(4-CF3)][Sar][hPhe(3-Cl-4-CF3)][Aze][Ac5c][NMeGly(cPent)][NMeD]-Morpholide; lactam N-11)	0.48		C (A compound having a KD ratio of 0.1 or more and less than 3 is denoted as C)	C (A compound having a KD ratio of 0.1 or more and less than 3 is denoted as C)	
CCC[C@H]1C(=O)N[C@@H]([C@@H](C)CC)C(=O)N(C)CC(=O)N(C)[C@H]2C/C=C\CCN(C2=O)[C@@H](Cc2ccc(C(F)(F)F)cc2)C(=O)N(C)CC(=O)N[C@@H](CCc2cc(F)c(C(F)(F)F)c(F)c2)C(=O)N2C[C@H](OCC)C[C@H]2C(=O)NC2(CCC2)C(=O)N(C)[C@@H](C2CCCC2)C(=O)N(C)[C@H](C(=O)N(CC)CC)CC(=O)N1C [PP1310, (2S,8S,12R,14S,20S,23S,27S,30S,36S,38Z)-20-cyclopentyl-8-[2-[3,5-difluoro-4-(trifluoromethyl)phenyl]ethyl]-12-ethoxy-N,N-diethyl-4,19,22,26,32,35-hexamethyl-30-[(1S)-1-methylpropyl]-3,6,9,15,18,21,25,28,31,34,42-undecaoxo-27-propyl-2-[[4-(trifluoromethyl)phenyl]methyl]spiro[1,4,7,10,16,19,22,26,29,32,35-undecazatricyclo[34.5.1.0^10,14]dotetracont-38-ene-17,1′-cyclobutane]-23-carboxamide]					Kd ([1]; SPR, Single Cycle Kinetics, 1:1 binding model): 0.13 nM; HRAS/KRAS (ratio of KD value for HRAS to KD value for KRAS) ([2]; KD ratio class): A (a compound having 10 or more and less than 20 is denoted as A); NRAS/KRAS (ratio of KD value for NRAS to KD value for KRAS) ([3]; KD ratio class): AA (a compound having 20 or more is denoted as AA)
CCCN1C(=O)CN(C)C(=O)CN(C)C(=O)[C@H]([C@@H](C)CC)NC(=O)[C@H](CC(C)C)N(C)C(=O)C[C@@H](C(=O)N2CCOCC2)N(C)C(=O)[C@H](C2CCCC2)N(C)C(=O)C2(CCCC2)NC(=O)[C@@H]2CCCN2C(=O)[C@H](CCc2ccc(C(F)(F)F)c(Cl)c2)NC(=O)CN(C)C(=O)[C@@H]1Cc1ccc(F)cc1 [PP0214] ([NMeL]I[Sar][Sar][X9][Sar][hPhe(3-Cl-4-CF3)]P[Ac5c][NMeGly(cPent)][NMeD]-Morpholide; lactam N-11)	0.13		C (A compound having a KD ratio of 0.1 or more and less than 3 is denoted as C)	B (a compound having 3 or more and less than 10 is denoted as B)	
CCO[C@@H]1C[C@H]2C(=O)NC3(CCC3)C(=O)N(C)[C@@H](C(C)(C)C)C(=O)N(C)[C@H](C(=O)N3CCOCC3)CC(=O)N(C)[C@@H](CC(C)C)C(=O)N[C@@H]([C@@H](C)CC)C(=O)N(C)CC(=O)N(C)[C@H]3CCCCN(C3=O)[C@@H](Cc3ccc(C(F)(F)F)cc3)C(=O)N(C)CC(=O)N[C@@H](CCc3cc(F)c(C(F)(F)F)c(F)c3)C(=O)N2C1 [PP0814]		0.039	B (a compound having 3 or more and less than 10 is denoted as B)	B (a compound having 3 or more and less than 10 is denoted as B)	
CCO[C@@H]1C[C@H]2C(=O)NC3(CCC3)C(=O)N(C)[C@@H](C3CCCC3)C(=O)N3CCC[C@@H]3CC(=O)N(C)[C@@H](CC)C(=O)N[C@@H]([C@@H](C)CC)C(=O)N(C)CC(=O)N(C)[C@H]3C/C=C\CCN(C3=O)[C@@H](Cc3ccc(C(F)(F)F)cc3)C(=O)N(C)CC(=O)N[C@@H](CCc3cc(F)c(C(F)(F)F)c(F)c3)C(=O)N2C1 [PP1097, (2S,8S,12R,14S,20S,26R,30S,33S,39S,41Z)-20-cyclopentyl-8-[2-[3,5-difluoro-4-(trifluoromethyl)phenyl]ethyl]-12-ethoxy-30-ethyl-4,19,29,35,38-pentamethyl-33-[(1 S)-1-methylpropyl]-2-[[4-(trifluoromethyl)phenyl]methyl]spiro[1,4,7,10,16,19,22,29,32,35,38-undecazatetracyclo[37.5.1.0^10,14.022,26]pentatetracont-41-ene-17,1′-cyclobutane]-3,6,9,15,18,21,28,31,34,37,45-undecone]		0.12	B (a compound having 3 or more and less than 10 is denoted as B)	B (a compound having 3 or more and less than 10 is denoted as B)	
